Measured values taken from US20240150286A1, “PEROXISOME PROLIFERATOR-ACTIVATED RECEPTOR GAMMA (PPARy) LIGANDS AND METHODS OF USE AS TREATMENTS FOR INSULIN RESISTANCE, OBESITY, FATTY LIVER DISEASE, AND TYPE 2 DIABETES” (The Board of Regents of the University of Oklahoma, priority 2022, published 2024).

Columns and labels:
[1] = target: T1, human PPARγ2 (Homo sapiens, UniProt P37231); assay: PPARγ transactivation reporter assay (3×PPRE-luc) in HEK-293 cells; format: cell-based
T1 construct: host or cells: HEK-293
T1 sequence (P37231 1-505): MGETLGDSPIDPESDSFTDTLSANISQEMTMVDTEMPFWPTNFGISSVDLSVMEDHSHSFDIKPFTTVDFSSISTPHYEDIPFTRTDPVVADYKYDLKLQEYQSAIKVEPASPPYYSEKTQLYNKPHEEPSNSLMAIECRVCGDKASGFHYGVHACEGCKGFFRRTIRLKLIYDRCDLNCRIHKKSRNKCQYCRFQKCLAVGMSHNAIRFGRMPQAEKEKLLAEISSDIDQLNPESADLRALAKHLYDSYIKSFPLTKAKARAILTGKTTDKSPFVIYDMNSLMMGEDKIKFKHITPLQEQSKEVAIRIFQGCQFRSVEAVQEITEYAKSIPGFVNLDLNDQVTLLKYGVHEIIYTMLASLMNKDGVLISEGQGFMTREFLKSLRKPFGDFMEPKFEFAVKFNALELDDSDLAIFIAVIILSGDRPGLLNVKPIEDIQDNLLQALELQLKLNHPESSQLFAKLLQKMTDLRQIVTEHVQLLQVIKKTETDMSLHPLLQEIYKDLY
Description: HEK-293 cells were seeded overnight, co-transfected with plasmids expressing human PPARγ2 and 3×PPRE-luc (both from Addgene) followed by incubation for 16 h, and then re-seeded in a 384-well plate and incubated for 24 h. Compounds were added and then incubated another 24 h. Luciferase activity was analyzed in each well using Bright-Glo Luciferase kit (Promega).

[2] = tested on: primary preadipocytes isolated from iWAT and eWAT; assay: Browning gene expression in differentiated primary preadipocytes; format: cell-based, mouse; details: differentiated with WO95E vs DMSO
Description: 3T3-L1 preadipocytes were differentiated. In brief, cells at around 60%-70% confluence were induced for differentiation with DMEM containing 10% FBS, 1 μg/ml insulin, 1 μM dexamethasone, and 0.5 mM IBMX for 48 h in the presence or absence of compounds and were then exposed in maintenance medium (1 μg/mL insulin in 10% FBS/DMEM) containing compounds. The medium was renewed every 2 days for total 8 days of differentiation when the cells became differentiated and lipid droplets were apparent. For primary preadipocyte differentiation, isolation of primary preadipocytes was performed. Briefly, fat depots were digested in PBS containing collagenase D (1.5 U/ml) at 37° C. for 40-45 min. The primary cells were filtered through 70 μm cell strainer and centrifuge at 700 g to collect stromal vascular fraction (SVF). The SVF cell pellets were plated on collagen coated plates. […]
Total RNA (2 μg) was isolated from tissues or cells using TRIzol reagents (Life Technologies) and reverse transcribed using oligo d(T) primers (New England Biosystems) and SuperScript IV reverse transcription kit (Applied Biosystems). qPCR was performed in a CFX96 Touch Real-Time PCR detection system using SYBR Green mix (Applied Biosystems). […] Relative mRNA expression was determined by the ΔΔCt method normalized to TBP mRNA. […]

- 3×PPRE-luc reporter activity as % of potency of Rosi ([1]; HEK293, PPARγ2 + 3×PPRE-luc, relative to Rosi): ~15%
- 3×PPRE-luc reporter activity as % of potency of UHC1 ([1]; HEK293, PPARγ2 + 3×PPRE-luc, relative to UHC1): ~33%
SMILES: Cc1c(C)n(Cc2ccc(-c3ccccc3C(=O)O)cc2)c2ccc(C(=O)NCc3cccc(O)c3)cc12 [WO95E, 4′-((5-((3-hydroxybenzyl)carbamoyl)-2,3-dimethyl-1H-indol-1-yl)methyl)-[1,1′-biphenyl]-2-carboxylic acid]
- PPARγ transactivation reporter activation (in words) ([1]; HEK293, PPARγ2 + 3×PPRE-luc): increased the reporter activity only weakly
- 3×PPRE reporter activation with GW9662 co-treatment ([1]; compound 10 μM, GW9662 5 μM, HEK293): retained its moderate ability to activate the reporter
- expression levels of Prdm16, UCP1, PCG1α, Ppara in iWAT adipocytes [2]: significantly increased
